Results taken from PubChem BioAssay (NCI).
Where “and” joins values, the source holds several entries; their conditions need not be identical. Equal values may be shown once.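 Exposure lasted 48 hours, with cells grown in 96-well plates and compounds tested at five concentrations. GI50 marks 50% less growth. TGI: concentration producing complete growth inhibition.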

What was measured:
Assay in all cases: DTP human tumour cell line panel, 48 h
[1] = test system: A498 renal
[2] = test system: HOP-62 NSCLC
[3] = test system: MCF7 breast
[4] = test system: NCI-H522 lung
[5] = test system: OVCAR-5 ovarian
[6] = test system: RXF 393 renal
[7] = test system: SK-MEL-5 melanoma
[8] = test system: SK-OV-3 ovarian
[9] = test system: SNB-19 CNS
[10] = test system: HCC-2998 colon

Row | Structure (SMILES) | TGI [1] [µM] | TGI [2] | TGI [3] [µM] | TGI [4] | TGI [5] [µM] | TGI [6] | TGI [7] [µM] | TGI [8] | TGI [9] | GI50 [10] [µM] | TGI [10] | GI50 [2] [µM] | GI50 [4] [µM] | GI50 [6] [µM] | GI50 [9] [µM] | GI50 [1] [µM] | GI50 [3] [µM] | GI50 [5] [µM] | GI50 [7] [µM] | GI50 [8] [µM]
1 | C(=NCCN1CCOCC1)=NC1CCCCC1 | > 100 | > 100 µM | > 100 | > 100 µM | > 100 | > 100 µM | > 100 | > 100 µM | > 100 µM |  |  |  |  |  |  |  |  |  |  | 
2 | CN(C)CCNC(=O)c1cccc2ccc(-c3ccc(O)cc3)nc12 | 12.1 | 7.2 µM and 4.47 µM | 5.2 | 4.62 µM and 9.18 µM | 9.11 | 17.4 µM and 19.8 µM | 2.96 | 15.7 µM and 9.75 µM | 15.4 µM and 12 µM | 1.87 | 17.5 µM and 14.1 µM | 1.11 | 2.26 | 5.65 | 2.41 |  |  |  |  | 
3 | O=C(O)COc1ccc2c(=O)c3sc4c(=O)c5ccccc5c(=O)c4c3c(=O)c2c1 | 28.1 | 22.4 µM | 25.8 | 53.4 µM | 34.3 | 28.1 µM | 3.35 | 43.9 µM | 23.7 µM | 11.2 | 26.7 µM | 8.03 | 19.3 | 12.6 | 7.51 | 14.7 | 5.51 | 17.7 | 1.75 | 16.6
4 | COc1cccc(C2CC(C)(O)Oc3cc4c(cc32)OCO4)c1O (stereo not given) | > 100 | 79.7 µM | > 66.5 | 53.5 µM | > 95.7 | > 79.8 µM | > 61.3 | > 100 µM | > 100 µM |  | 51.2 µM |  |  |  |  |  |  |  |  | 
5 | Cc1ccc(S(=O)(=O)Nc2ccccc2C=O)cc1 | 92.2 | 85 µM | 35.2 | 82.1 µM | 67 | > 100 µM | 25.1 | 94.8 µM | 75 µM |  |  |  |  |  |  |  |  |  |  | 
6 | Cc1cc(C)c2c(n1)sc1c(Nc3ccc(Cl)cc3)ncnc12 | 0.491 |  | > 100 | > 100 µM | > 100 | 0.0898 µM | > 100 | > 100 µM | > 100 µM | 7.4 | > 100 µM | < 0.01 | < 0.01 | 0.0195 | < 0.01 | < 0.0133 | < 0.01 | < 0.0125 | < 0.0141 | 0.0418
7 | Cc1ccc(SC2c3ccc(C)cc3Oc3nc(N)c(C#N)c(N)c32)cc1 (stereo not given) | 7.33 | 3.4 µM | 4.74 | 3.11 µM | 3.45 | 3.28 µM | 3.1 | 21.7 µM | 3.71 µM | 1.8 | 3.46 µM | 1.79 | 1.67 | 1.81 | 1.86 | 2.72 | 1.94 | 1.76 | 1.64 | 10.1
8 | CN1CCN(C2CCN(C(=O)Nc3cc(Oc4ccc(NC(=O)C5(C(=O)Nc6ccc(F)cc6)CC5)c(F)c4)ccn3)CC2)CC1 | 1.38 | > 3.92 µM | > 10 | > 2.66 µM | > 10 | > 2.4 µM | 6.36 | > 10 µM | > 10 µM | > 2.04 | > 10 µM |  |  | 0.918 | 0.354 | 0.315 | 1.09 | 1.58 | 2.43 | 1.3
